# Results published in patent US11504428B2, “Photosensitizer and derivatives and application thereof” (DALIAN UNIVERSITY OF TECHNOLOGY, priority 2017, dated 2022).
# How the values were obtained:
# [1] = UV absorption and fluorescence emission spectra in methanol; format: physicochemical; settings: 5 μM in methanol
# Method: (§1) Compounds 1-1 and 1-2 synthesized from embodiment 1 above are added to 3 mL methanol solvent with a final concentration of 5 μM and their UV absorption spectra and fluorescence emission spectra are measured. […] The instruments used are AgIIlent 8453 UV spectrophotometer and AgIIlent Cary EclIIpse fluorescence spectrophotometer.
# as §1, with “Benzophenoselenazine photosensitizer 2-1, 2-2,” for “Compounds 1-1 and 1-2”, “2” for “1”, “μM,” for “μM”
# Compounds 1-1-IMC and 2-1-IMC synthesized from embodiment 3 above are added to 3 mL methanol solvent with a final concentration of 5 μM. The UV absorption spectra and fluorescence emission spectra are then measured. […] The instruments used are AgIIlent 8453 UV spectrophotometer and AgIIlent Cary EclIIpse fluorescence spectrophotometer.
# Compounds 1-1-Biotin synthesized from embodiment 4 above is added to 3 mL methanol solvent with a final concentration of 5 μM, and then the UV absorption spectra and fluorescence emission spectra are detected. […] The instruments used are AgIIlent 8453 UV spectrophotometer and AgIIlent Cary EclIIpse fluorescence spectrophotometer.
# [2] = Singlet oxygen production, DPBF absorption attenuation under 660 nm light, methylene blue as reference; format: physicochemical; settings: 5 μM in methanol
# Method: Compounds 1-1 and 1-2 synthesized in the embodiment 1 are added to 3 mL methanol solvent with a final concentration of 5 μM. Next, 1, 3-diphenyl isobenzofuran (DPBF) is added, and adjusting the absorbance of DPBF in the solution to about 1.0. Then the ultraviolet absorption curve is measured. According to the changes of the absorbance value of DPBF at 411 nm after each irradiation (660 nm light source), the correlation curve between absorbance and time is drawn. With methylene blue (MB) as reference, the singlet oxygen yield is calculated using the following formula.
# (§2) Compounds 1-1 and 1-2 synthesized in the above embodiment 2 are added to 3 mL methanol solvent with a final concentration of 5 μM. Then, the 1,3-diphenyl isobenzofuran (DPBF) is added, and the absorbance of DPBF in the solution is adjusted to about 1.0. Then the ultraviolet absorption curve is measured after each 660 nm red light irradiation. According to the changes of the absorbance value of DPBF at 411 nm, the correlation curve between absorbance and time is drawn. With methylene blue (MB) as reference, the following formula is used to calculate the oxygen yield of its singlet state.
# [formula] […] The instruments used are AgIIlent 8453 UV spectrophotometer, and the light source is 300 W xenon lamp.
# as §2, with “1-1-IMC” for “1-1”, “2-1-IMC” for “1-2”
# as §2, with “1-1-Biotin” for “1-1 and 1-2”
# HepG2 cells = assay: In vitro cell selectivity test, confocal fluorescence uptake in co-cultured cells, HepG2; format: cell-based; settings: 1 μM, 1 h
# Method: (§3) Firstly, HepG2 cells and COS-7 cells are cultured together in a cell culture dish for 24 h, and then 1 μM of 1-1-biotin or 1-1 is added and further incubation for 1 h. After staining, the cells are washed using serum-free medium for three times. Then, 2 mL fresh medium is added, and corresponding fluorescence observation is performed using the laser confocal scanning microscope. The excitation wavelength is 635 nm and the fluorescence receiving channel is 655 nm-755 nm.
# HepG2 (hepatoma cells) = assay: In vitro anticancer test (MTT cell viability), dark and 660 nm light, HepG2; format: cell-based
# Method: MCF-7 (human breast) cancer cells or HepG2 (liver cancer cell) are incubated on the cell culture plate in DMEM medium supplemented with 10% FBS and 1% penicillin-streptomycin at 37° C. in a humidified, 5% CO2 atmosphere. Then, the MCF-7 cells are seeded in 96 well cell culture plate at density of 5,000 cells per well. After 24 h incubation, 100 μL of 1-1-Biotin at different concentrations (5, 2.5, 1.25, 0.625, 0.32, 0.16, 0.08, 0.04, 0.02 μM) are added into the each well, and cultured for 1 h. Then, the cell medium is replaced with 200 μL fresh medium. For the phototoxicity test, the 96-well plate is irradiated with 660 nm light source for 10 min and then cultured in the above environment for 12 hours. No light irradiation is used as control. Then 20 μL MTT solution with a concentration of 5 mg/mL is added into each well and incubated in the incubator for another 4 hours. The culture medium is then removed and 200 μL DMSO is added to each well, and the plate is gently shaken for 5 min at room temperature. Finally, the absorbance at 490 nm is measured with a Bio-Rad microplate reader and the cell viability is calculated by the following equation: Cell Viability (%)=[Σ(Ai/Ācontrol×100)]/n
# Ai is the absorbance of the ith group of data (I=1, 2 . . . , n), Ācontrol is the average absorbance of the control hole of the drug, and the parallel experiment is more than 3 times.
# [3] = test system: COS-7 (African green monkey kidney cells); assay: In vitro anticancer test (MTT cell viability), dark and 660 nm light, COS-7; format: cell-based
# COS-7 cells = assay: In vitro cell selectivity test, confocal fluorescence uptake in co-cultured cells, COS-7; format: cell-based, African green monkey; settings: 1 μM, 1 h, COS-7 co-cultured with HepG2, excitation 635 nm
# Method: as §3
Compound,maximum absorption wavelength [1],maximum emission wavelength [1],singlet oxygen yield [2],selectivity of uptake for HepG2 over COS-7 cells (HepG2 cells; co-culture of HepG2 and COS-7),"killing effect on biotin receptor overexpressing HepG2 cells relative to COS-7 cells (HepG2 (hepatoma cells); 660 nm light, HepG2 vs COS-7 with low biotin receptor expression)","phototoxicity (cell killing) (HepG2 (hepatoma cells); HepG2, 10 minutes irradiation with 660 nm LED light source, MTT)","dark toxicity (cell survival rate) (HepG2 (hepatoma cells); HepG2, no light irradiation, MTT)","phototoxicity (cytotoxicity) ([3]; COS-7, 10 minutes irradiation with 660 nm LED light source)","dark toxicity (cell survival rate) ([3]; COS-7, no light irradiation)","cell uptake / targeting (red fluorescence) (HepG2 cells; HepG2 co-cultured with COS-7, excitation 635 nm)",cell uptake (red fluorescence) (COS-7 cells)
CCN(CC)c1ccc2nc3c4ccccc4/c(=N\CCCCCCNC(=O)Cc4c(C)n(C(=O)c5ccc(Cl)cc5)c5ccc(OC)cc45)cc-3[se]c2c1 [2-1-IMC],662 nm,703 nm,0.82,–,–,–,–,–,–,–,–
CCN(CC)c1ccc2nc3c4ccccc4/c(=N\CCCCCCN)cc-3sc2c1 [1-1],655 nm,694 nm,0.04,does not have such selectivity,–,–,–,–,–,–,–
CCN(CC)c1ccc2nc3c4ccccc4/c(=N\CCCCCCN)cc-3[se]c2c1 [2-1],661 nm,702 nm,0.78,–,–,–,–,–,–,–,–
CCN(CC)c1ccc2nc3c4ccccc4/c(=N\CCCCCCNC(=O)CCCCC4SC[C@@H]5NC(=O)N[C@H]45)cc-3sc2c1 (some centres unmarked) [1-1-Biotin],652 nm,681 nm,0.04,–,significantly higher,significant HepG2 cells arr killed,low dark toxicity,only limited cytotoxicity,low dark toxicity,can specifically target HepG2 cells,very limited
CCN(CC)c1ccc2nc3c4ccccc4/c(=N\CCCCCCNC(=O)Cc4c(C)n(C(=O)c5ccc(Cl)cc5)c5ccc(OC)cc45)cc-3sc2c1 [1-1-IMC],654 nm,694 nm,0.04,–,–,–,–,–,–,–,–
CCN(CC)c1ccc2nc3c4ccccc4/c(=N\CCCCCC(=O)O)cc-3[se]c2c1 [2-2],661 nm,702 nm,0.73,–,–,–,–,–,–,–,–
CCN(CC)c1ccc2nc3c4ccccc4/c(=N\CCCCCC(=O)O)cc-3sc2c1 [1-2],655 nm,694 nm,0.04,–,–,–,–,–,–,–,–
